Holding throughout (type): cell-based
Series [1] addresses T1, Signal transducer and activator of transcription 6 (Homo sapiens) (UniProt P42226).
T1 sequence (whole entry): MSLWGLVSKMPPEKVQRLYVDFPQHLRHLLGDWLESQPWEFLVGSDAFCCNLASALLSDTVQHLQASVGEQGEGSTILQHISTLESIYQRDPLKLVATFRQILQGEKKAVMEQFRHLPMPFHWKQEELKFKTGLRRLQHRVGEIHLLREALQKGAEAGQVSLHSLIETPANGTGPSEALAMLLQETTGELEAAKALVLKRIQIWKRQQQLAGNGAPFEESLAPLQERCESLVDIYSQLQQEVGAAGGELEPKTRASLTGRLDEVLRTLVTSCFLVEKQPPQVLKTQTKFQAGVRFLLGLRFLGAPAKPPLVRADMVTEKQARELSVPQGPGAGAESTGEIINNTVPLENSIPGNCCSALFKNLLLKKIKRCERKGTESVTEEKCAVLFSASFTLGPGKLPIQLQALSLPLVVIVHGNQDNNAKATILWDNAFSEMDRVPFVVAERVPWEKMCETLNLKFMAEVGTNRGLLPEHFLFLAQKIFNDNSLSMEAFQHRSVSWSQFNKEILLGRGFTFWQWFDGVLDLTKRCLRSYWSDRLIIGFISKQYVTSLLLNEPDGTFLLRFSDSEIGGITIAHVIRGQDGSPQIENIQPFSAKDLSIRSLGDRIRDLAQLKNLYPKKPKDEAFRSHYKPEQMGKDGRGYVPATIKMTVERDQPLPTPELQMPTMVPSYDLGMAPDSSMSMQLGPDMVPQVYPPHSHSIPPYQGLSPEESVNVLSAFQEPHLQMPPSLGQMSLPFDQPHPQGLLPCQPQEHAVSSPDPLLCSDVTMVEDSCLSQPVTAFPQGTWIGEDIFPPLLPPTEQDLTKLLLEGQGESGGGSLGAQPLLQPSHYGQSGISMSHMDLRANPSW
The series can be described thus: Inhibition of IL4-stimulated SH2 domain of STAT6 phosphorylation at Tyr641 in human BEAS2B cells at 1 to 10 uM incubated for 2 to 48 hrs prior to IL-4 challenge measured after 1 hr by Western blotting analysis. A general note: A western blot detects proteins with antibodies after separation by electrophoresis.

Series [2] can be described thus: Cytotoxicity against human BEAS2B cells up to 10 uM after 72 hrs by MTS assay. The note with it: beas-2b.
Series [3] addresses T1, Signal transducer and activator of transcription 6 (Homo sapiens). The series can be described thus: Inhibition of IL13-stimulated SH2 domain of STAT6 phosphorylation at Tyr641 in human BEAS2B cells at 1 to 10 uM incubated for 2 hrs prior to IL-13 challenge measured after 1 hr by Western blotting analysis.
The target is the same in series [4]. As to the kind of experiment: Inhibition of IL4-stimulated SH2 domain of STAT6 phosphorylation at Tyr641 in human BEAS2B cells at 1 to 10 uM incubated for 2 hrs prior to IL-4 challenge measured after 1 hr by Western blotting analysis.

The source made the active and inactive calls. No cut-off for these calls is given here.

In the case of `CC(C)(C)C(=O)OCOP(=O)(OCOC(=O)C(C)(C)C)C(F)(F)c1ccc(/C=C/C(=O)N[C@H](C(=O)N2CCC[C@H]2C(=O)N(c2ccccc2)c2ccc(I)cc2)C(C)(C)C)cc1`, the inhibition result in series [1], in series [3] and in series [4] was “Active” throughout. Further, in series [2], the Activity entry was “Non-toxic”.

(Values after ChEMBL document CHEMBL3108719, “Synthesis and in Vitro Evaluation of a Peptidomimetic Inhibitor Targeting the Src Homology 2 (SH2) Domain of STAT6” (ACS Med Chem Lett, 2014).)
